Data published in ChEMBL document CHEMBL4346757, “Synthesis and biological evaluation of 7-methoxy-1-(3,4,5-trimethoxyphenyl)-4,5-dihydro-2H-benzo[e]indazoles as new colchicine site inhibitors” (Bioorg Med Chem Lett, 2019).

Key:
Assay type in all cases: functional
A498 [1] = assay: Growth inhibition of human A498 cells assessed as cell growth at 1 uM after 48 hrs by SRB assay relative to control; details: A498, 48 h, read-out: Activity
NCI-H322M = assay: Growth inhibition of human NCI-H322M cells assessed as cell growth at 0.1 uM after 48 hrs by SRB assay relative to control; details: read-out: Activity
SNB-75 = assay: Growth inhibition of human SNB75 cells assessed as cell growth at 0.1 uM after 48 hrs by SRB assay relative to control; details: SNB-75, 48 h, read-out: Activity
A549 = assay: Cytotoxicity against human A549/ATCC cells assessed as growth inhibition after 48 hrs by SRB assay; details: A549, 48 h
ACHN = assay: Growth inhibition of human ACHN cells assessed as cell growth at 0.1 uM after 48 hrs by SRB assay relative to control; details: read-out: Activity
HOP-92 = assay: Growth inhibition of human HOP92 cells assessed as cell growth at 0.01 uM after 48 hrs by SRB assay relative to control; details: HOP-92, 48 h, read-out: Activity
KM12 = assay: Cytotoxicity against human KM12 cells assessed as growth inhibition after 48 hrs by SRB assay; details: KM12, 48 h
NCI-H460 = assay: Growth inhibition of human NCI-H460 cells assessed as cell growth at 0.01 uM after 48 hrs by SRB assay relative to control; details: NCI-H460, 48 h, read-out: Activity
CAKI-1 = assay: Growth inhibition of human Caki1 cells assessed as cell growth at 1 uM after 48 hrs by SRB assay relative to control; details: CAKI-1, 48 h, read-out: Activity
RPMI-8226 [2] = assay: Growth inhibition of human RPMI8226 cells assessed as cell growth at 1 uM after 48 hrs by SRB assay relative to control; details: RPMI-8226, 48 h, read-out: Activity
T47D [3] = assay: Growth inhibition of human T47D cells assessed as cell growth at 0.01 uM after 48 hrs by SRB assay relative to control; details: read-out: Activity
RPMI-8226 [4] = assay: Growth inhibition of human RPMI8226 cells assessed as cell growth at 0.1 uM after 48 hrs by SRB assay relative to control; details: RPMI-8226, 48 h, read-out: Activity
NCI-H522 = assay: Cytotoxicity against human NCI-H522 cells assessed as growth inhibition after 48 hrs by SRB assay; details: NCI-H522, 48 h
NCI-H23 = assay: Growth inhibition of human NCI-H23 cells assessed as cell growth at 0.01 uM after 48 hrs by SRB assay relative to control; details: NCI-H23, 48 h, read-out: Activity
UACC-257 = assay: Growth inhibition of human UACC257 cells assessed as cell growth at 1 uM after 48 hrs by SRB assay relative to control; details: UACC-257, 48 h, read-out: Activity
OVCAR-5 = assay: Growth inhibition of human OVCAR5 cells assessed as cell growth at 0.01 uM after 48 hrs by SRB assay relative to control; details: OVCAR-5, 48 h, read-out: Activity
SF-295 = assay: Growth inhibition of human SF295 cells assessed as cell growth at 0.1 uM after 48 hrs by SRB assay relative to control; details: SF-295, 48 h, read-out: Activity
A498 [5] = assay: Growth inhibition of human A498 cells assessed as cell growth at 0.1 uM after 48 hrs by SRB assay relative to control; details: A498, 48 h, read-out: Activity
UACC-62 = assay: Cytotoxicity against human UACC62 cells assessed as growth inhibition after 48 hrs by SRB assay; details: UACC-62, 48 h
UO-31 = assay: Cytotoxicity against human UO31 cells assessed as growth inhibition after 48 hrs by SRB assay; details: UO-31, 48 h
SF-268 = assay: Growth inhibition of human SF268 cells assessed as cell growth at 0.01 uM after 48 hrs by SRB assay relative to control; details: SF-268, 48 h, read-out: Activity
RPMI-8226 [6] = assay: Growth inhibition of human RPMI8226 cells assessed as cell growth at 100 uM after 48 hrs by SRB assay relative to control; details: RPMI-8226, 48 h, read-out: Activity
SW-620 = assay: Growth inhibition of human SW620 cells assessed as cell growth at 0.1 uM after 48 hrs by SRB assay relative to control; details: SW-620, 48 h, read-out: Activity
HCC 2998 = assay: Growth inhibition of human HCC2998 cells assessed as cell growth at 0.01 uM after 48 hrs by SRB assay relative to control; details: HCC 2998, 48 h, read-out: Activity
HT-29 = assay: Growth inhibition of human HT-29 cells assessed as cell growth at 0.1 uM after 48 hrs by SRB assay relative to control; details: HT-29, 48 h, read-out: Activity
MDA-MB-231 = assay: Growth inhibition of human MDA-MB-231/ATCC cells assessed as cell growth at 10 uM after 48 hrs by SRB assay relative to control; details: MDA-MB-231, 48 h, read-out: Activity
Malme-3M = assay: Cytotoxicity against human MALME-3M cells assessed as growth inhibition after 48 hrs by SRB assay
DU-145 = assay: Growth inhibition of human DU145 cells assessed as cell growth at 10 uM after 48 hrs by SRB assay relative to control; details: DU-145, 48 h, read-out: Activity
M14 = assay: Growth inhibition of human M14 cells assessed as cell growth at 0.1 uM after 48 hrs by SRB assay relative to control; details: M14, 48 h, read-out: Activity
T47D [7] = assay: Cytotoxicity against human T47D cells assessed as growth inhibition after 48 hrs by SRB assay
[8] = read-out: LC50 (the source's name)
[9] = read-out: pLC50 (the source's name) (converted)

SMILES: COc1ccc2c(c1)CCc1n[nH]c(-c3cc(OC)c(OC)c(OC)c3)c1-2
- growth at 1 µM (A498 [1]): -16%
- growth at 0.1 µM (NCI-H322M): 40%
- growth at 0.1 µM (SNB-75): 31%
- GI50 (A549; read-out: GI50): < 0.01 µM
- CC50 (A549; [8]): > 100 µM
- TGI (A549; read-out: TGI): 19.5 µM
- GI50 (A549; read-out: pGI50 (converted)): < 0.01 µM
- CC50 (A549; [9]): > 100 µM
- TGI (A549; read-out: pTGI (converted)): 19.5 µM
- growth at 0.1 µM (ACHN): 27%
- growth at 0.01 µM (HOP-92): 39%
- GI50 (KM12; read-out: GI50): < 0.01 µM
- CC50 (KM12; [8]): 46.5 µM
- TGI (KM12; read-out: TGI): 11.8 µM
- GI50 (KM12; read-out: pGI50 (converted)): < 0.01 µM
- CC50 (KM12; [9]): 46.8 µM
- TGI (KM12; read-out: pTGI (converted)): 11.7 µM
- growth at 0.01 µM (NCI-H460): 3%
- growth at 1 µM (CAKI-1): 22%
- growth at 1 µM (RPMI-8226 [2]): 52%
- growth at 0.01 µM (T47D [3]): 59%
- growth at 0.1 µM (RPMI-8226 [4]): 51%
- GI50 (NCI-H522; read-out: GI50): < 0.01 µM
- CC50 (NCI-H522; [8]): 46.9 µM
- TGI (NCI-H522; read-out: TGI): < 0.01 µM
- GI50 (NCI-H522; read-out: pGI50 (converted)): < 0.01 µM
- CC50 (NCI-H522; [9]): 46.8 µM
- TGI (NCI-H522; read-out: pTGI): < 0.01 µM
- growth at 0.01 µM (NCI-H23): 14%
- growth at 1 µM (UACC-257): 62%
- growth at 0.01 µM (OVCAR-5): 56%
- growth at 0.1 µM (SF-295): 5%
- growth at 0.1 µM (A498 [5]): -15%
- GI50 (UACC-62; read-out: GI50): < 0.01 µM
- CC50 (UACC-62; [8]): 50 µM
- TGI (UACC-62; read-out: TGI): 13 µM
- GI50 (UACC-62; read-out: pGI50 (converted)): < 0.01 µM
- CC50 (UACC-62; [9]): 50.1 µM
- TGI (UACC-62; read-out: pTGI (converted)): 12.9 µM
- GI50 (UO-31; read-out: GI50): < 0.01 µM
- CC50 (UO-31; [8]): > 100 µM
- TGI (UO-31; read-out: TGI): 17.3 µM
- GI50 (UO-31; read-out: pGI50 (converted)): < 0.01 µM
- CC50 (UO-31; [9]): > 100 µM
- TGI (UO-31; read-out: pTGI (converted)): 17.4 µM
- growth at 0.01 µM (SF-268): 39%
- growth at 100 µM (RPMI-8226 [6]): 15%
- growth at 0.1 µM (SW-620): 18%
- growth at 0.01 µM (HCC 2998): 15%
- growth at 0.1 µM (HT-29): 2%
- growth at 10 µM (MDA-MB-231): 33%
- GI50 (Malme-3M; read-out: GI50): < 0.01 µM
- CC50 (Malme-3M; [8]): > 100 µM
- TGI (Malme-3M; read-out: TGI): 33.9 µM
- GI50 (Malme-3M; read-out: pGI50 (converted)): < 0.01 µM
- CC50 (Malme-3M; [9]): > 100 µM
- TGI (Malme-3M; read-out: pTGI (converted)): 33.9 µM
- growth at 10 µM (DU-145): 8%
- growth at 0.1 µM (M14): 1%
- GI50 (T47D [7]; read-out: GI50): 3.59 µM
- LC50 (T47D [7]; read-out: LC50): 62.5 µM
- TGI (T47D [7]; read-out: TGI): 21.3 µM
- GI50 (T47D [7]; read-out: pGI50 (converted)): 3.63 µM
- LC50 (T47D [7]; read-out: pLC50 (converted)): 63.1 µM
- TGI (T47D [7]; read-out: pTGI (converted)): 21.4 µM
